Measurements reported in US9586961B2, “Homopiperazine derivatives as protein tyrosine kinase inhibitors and pharmaceutical use thereof” (LEO PHARMA A/S, priority 2010, dated 2017).

Experiments:
Type in all cases: biochemical
JAK1 = target: T1, JAK1 (Homo sapiens, UniProt P23458); assay: JAK1 kinase assay (HTRF, inhibition of phosphorylation of a synthetic peptide); conditions: catalytic domain aa 850-1154, GST-tag; 7 μM ATP (Km); read-out: JAK1 kinase inhibitory activity (EC50)
T1 construct: JAK1 (aa 850-1154) and TYK2 (aa 871-1187) are expressed with an N-terminally fused GST-tag; GST (N); purchased Carna Biosciences, Inc; host or cells: baculovirus expression system
T1 sequence (P23458 850-1154): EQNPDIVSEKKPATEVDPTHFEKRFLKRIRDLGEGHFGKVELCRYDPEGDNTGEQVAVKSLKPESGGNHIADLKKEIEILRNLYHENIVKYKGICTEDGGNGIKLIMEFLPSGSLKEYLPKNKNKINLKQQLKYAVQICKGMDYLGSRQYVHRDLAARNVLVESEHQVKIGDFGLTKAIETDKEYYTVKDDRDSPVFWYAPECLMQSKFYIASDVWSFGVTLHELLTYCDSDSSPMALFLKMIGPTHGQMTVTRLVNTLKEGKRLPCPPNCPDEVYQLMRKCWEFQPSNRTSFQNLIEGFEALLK
Procedure, shortened: (§1)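 Baculovirus-expressed human catalytic domains (GST-JAK1, GST-TYK2, His-JAK2, His-JAK3) phosphorylated 1 μM TK substrate-biotin at ATP Km (JAK1 7 μM, JAK2 4 μM, JAK3 2 μM, TYK2 13 μM) in pH 7.0 Hepes for 20-30 min at RT, 0.75% DMSO. EDTA stop, then overnight streptavidin-XL665/cryptate-antibody detection and HTRF read.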

JAK2 = target: T2, JAK2 (Homo sapiens, UniProt O60674); assay: JAK2 kinase assay (HTRF, inhibition of phosphorylation of a synthetic peptide); conditions: catalytic domain, His-tag; 4 μM ATP (Km); read-out: JAK2 kinase inhibitory activity (EC50)
T2 construct: All four purified enzymes contain only the catalytic domain; His (N); purchased Carna Biosciences, Inc; host or cells: baculovirus expression system
T2 sequence (O60674 849-1124 limits assumed): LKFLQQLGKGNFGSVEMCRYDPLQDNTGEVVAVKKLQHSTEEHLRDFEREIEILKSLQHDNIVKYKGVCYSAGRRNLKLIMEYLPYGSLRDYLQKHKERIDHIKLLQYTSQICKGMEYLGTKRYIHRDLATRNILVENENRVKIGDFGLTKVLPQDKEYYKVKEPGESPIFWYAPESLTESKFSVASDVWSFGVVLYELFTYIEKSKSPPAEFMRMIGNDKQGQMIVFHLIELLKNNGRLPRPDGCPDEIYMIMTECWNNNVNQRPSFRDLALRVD
Procedure, shortened: as §1

TYK2 = target: T3, TYK2 (Homo sapiens, UniProt P29597); assay: TYK2 kinase assay (HTRF, inhibition of phosphorylation of a synthetic peptide); conditions: catalytic domain aa 871-1187, GST-tag; 13 μM ATP (Km); read-out: TYK2 kinase inhibitory activity (EC50)
T3 construct: JAK1 (aa 850-1154) and TYK2 (aa 871-1187) are expressed with an N-terminally fused GST-tag; GST (N); purchased Carna Biosciences, Inc; host or cells: baculovirus expression system
T3 sequence (P29597 871-1187): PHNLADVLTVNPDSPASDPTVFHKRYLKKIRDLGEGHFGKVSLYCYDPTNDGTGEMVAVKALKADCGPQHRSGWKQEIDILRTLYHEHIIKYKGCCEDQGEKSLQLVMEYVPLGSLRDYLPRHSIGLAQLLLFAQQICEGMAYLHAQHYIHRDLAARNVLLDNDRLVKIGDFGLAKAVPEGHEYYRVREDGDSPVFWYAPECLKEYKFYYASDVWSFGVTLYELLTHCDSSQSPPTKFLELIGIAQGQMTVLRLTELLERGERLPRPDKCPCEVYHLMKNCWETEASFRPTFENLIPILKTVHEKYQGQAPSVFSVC
Procedure, shortened: as §1

JAK3 = target: T4, JAK3 (Homo sapiens, UniProt P52333); assay: JAK3 kinase assay (HTRF, inhibition of phosphorylation of a synthetic peptide); conditions: catalytic domain, His-tag; 2 μM ATP (Km); read-out: JAK3 kinase inhibitory activity (EC50)
T4 construct: All four purified enzymes contain only the catalytic domain; His (N); purchased Carna Biosciences, Inc; host or cells: baculovirus expression system
T4 sequence (P52333 822-1111 limits assumed): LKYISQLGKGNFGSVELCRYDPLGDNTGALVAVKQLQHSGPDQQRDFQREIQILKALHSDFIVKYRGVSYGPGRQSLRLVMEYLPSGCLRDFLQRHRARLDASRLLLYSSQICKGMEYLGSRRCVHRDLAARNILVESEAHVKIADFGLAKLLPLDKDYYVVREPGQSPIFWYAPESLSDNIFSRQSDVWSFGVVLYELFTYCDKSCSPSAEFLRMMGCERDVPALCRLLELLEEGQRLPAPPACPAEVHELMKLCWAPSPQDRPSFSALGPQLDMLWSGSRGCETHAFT
Procedure, shortened: as §1

Structure (SMILES) | EC50 (JAK1) | EC50 (JAK2) | EC50 (TYK2) | EC50 (JAK3)
N#Cc1ccc(C(=O)N2CCCN(c3ncnc4[nH]ccc34)CC23CC3)cc1 [Example 56, 4-[5-(7H-pyrrolo[2,3-d]pyrimidin-4-yl)-5,9-diazaspiro[2.6]nonane-9-carbonyl]benzonitrile] | < 100 nM | < 100 nM | > 1000 nM | 100 to 1000 nM
N#Cc1cccc(C(=O)N2CCCN(c3ncnc4[nH]ccc34)CC23CC3)c1 [Example 57, 3-[5-(7H-pyrrolo[2,3-d]pyrimidin-4-yl)-5,9-diazaspiro[2.6]nonane-9-carbonyl]benzonitrile] | 100 to 1000 nM | < 100 nM | 100 to 1000 nM | 100 to 1000 nM
N#Cc1cccc(CC(=O)N2CCCN(c3ncnc4[nH]ccc34)CC23CC3)c1 [Example 58, 3-[2-oxo-2-[5-(7H-pyrrolo[2,3-d]pyrimidin-4-yl)-5,9-diazaspiro[2.6]nonan-9-yl]ethyl]benzonitrile] | > 1000 nM | > 1000 nM | > 1000 nM | > 1000 nM
N#Cc1ccc(CC(=O)N2CCCN(c3ncnc4[nH]ccc34)CC23CC3)cc1 [Example 59, 4-[2-oxo-2-[5-(7H-pyrrolo[2,3-d]pyrimidin-4-yl)-5,9-diazaspiro[2.6]nonan-9-yl]ethyl]benzonitrile] | 100 to 1000 nM | 100 to 1000 nM | > 1000 nM | > 1000 nM
N#CC1(C(=O)N2CCCN(c3ncnc4[nH]ccc34)CC23CC3)CC1 [Example 60, 1-[5-(7H-pyrrolo[2,3-d]pyrimidin-4-yl)-5,9-diazaspiro[2.6]nonane-9-carbonyl]cyclopropanecarbonitrile] | 100 to 1000 nM | < 100 nM | > 1000 nM | 100 to 1000 nM
N#CCCC(=O)N1CCCN(c2ncnc3[nH]ccc23)CC12CC2 [Example 61, 4-oxo-4-[5-(7H-pyrrolo[2,3-d]pyrimidin-4-yl)-5,9-diazaspiro[2.6]nonan-9-yl]butanenitrile] | 100 to 1000 nM | 100 to 1000 nM | > 1000 nM | 100 to 1000 nM
N#Cc1ccc(C(=O)N2CCN(c3ncnc4[nH]ccc34)CC3(CC3)C2)cc1 [Example 62, 4-[5-(7H-pyrrolo[2,3-d]pyrimidin-4-yl)-5,8-diazaspiro[2.6]nonane-8-carbonyl]benzonitrile] | 100 to 1000 nM | 100 to 1000 nM | > 1000 nM | 100 to 1000 nM
NS(=O)(=O)c1ccc(OCC(=O)N2CCN(c3ncnc4[nH]ccc34)CC3(CC3)C2)cc1 [Example 63, 4-[2-oxo-2-[5-(7H-pyrrolo[2,3-d]pyrimidin-4-yl)-5,8-diazaspiro[2.6]nonan-8-yl]ethoxy]benzenesulfonamide] | < 100 nM | < 100 nM | < 100 nM | < 100 nM
NS(=O)(=O)c1ccc(NC(=O)C(=O)N2CCN(c3ncnc4[nH]ccc34)CC3(CC3)C2)cc1 [Example 64, 2-oxo-2-[5-(7H-pyrrolo[2,3-d]pyrimidin-4-yl)-5,8-diazaspiro[2.6]nonan-8-yl]-N-(4-sulfamoylphenyl)acetamide] | < 100 nM | < 100 nM | 100 to 1000 nM | < 100 nM
NS(=O)(=O)c1ccc(-c2ccc(C(=O)N3CCN(c4ncnc5[nH]ccc45)CC4(CC4)C3)o2)cc1 [Example 65, 4-[5-[5-(7H-pyrrolo[2,3-d]pyrimidin-4-yl)-5,8-diazaspiro[2.6]nonane-8-carbonyl]-2-furyl]benzenesulfonamide] | < 100 nM | < 100 nM | 100 to 1000 nM | 100 to 1000 nM
O=C(Cc1ccc(I)cc1)N1CCN(c2ncnc3[nH]ccc23)CC2(CC2)C1 [Example 66, 2-(4-iodophenyl)-1-[5-(7H-pyrrolo[2,3-d]pyrimidin-4-yl)-5,8-diazaspiro[2.6]nonan-8-yl]ethanone] | < 100 nM | < 100 nM | 100 to 1000 nM | 100 to 1000 nM
Nc1nc(N2CCCN(Cc3ccccc3)C3(CC3)C2)c2cc[nH]c2n1 [Example 67, 4-(9-benzyl-5,9-diazaspiro[2.6]nonan-5-yl)-7H-pyrrolo[2,3-d]pyrimidin-2-amine] | > 1000 nM | > 1000 nM | > 1000 nM | > 1000 nM
Nc1nc(N2CCN(Cc3ccccc3)CC3(CC3)C2)c2cc[nH]c2n1 [Example 68, 4-(5-benzyl-5,8-diazaspiro[2.6]nonan-8-yl)-7H-pyrrolo[2,3-d]pyrimidin-2-amine] | > 1000 nM | > 1000 nM | > 1000 nM | > 1000 nM
N#CCCNS(=O)(=O)c1ccc(C(=O)N2CCN(c3ncnc4[nH]ccc34)CC3(CC3)C2)cc1 [Example 69, N-(2-cyanoethyl)-4-[5-(7H-pyrrolo[2,3-d]pyrimidin-4-yl)-5,8-diazaspiro[2.6]nonane-8-carbonyl]benzenesulfonamide] | 100 to 1000 nM | 100 to 1000 nM | > 1000 nM | 100 to 1000 nM
O=C(c1ccc(S(=O)(=O)NCC2CCCO2)cc1)N1CCN(c2ncnc3[nH]ccc23)CC2(CC2)C1 (stereo not shown) [Example 70] | 100 to 1000 nM | 100 to 1000 nM | > 1000 nM | 100 to 1000 nM
Cc1cc(S(N)(=O)=O)ccc1C(=O)N1CCN(c2ncnc3[nH]ccc23)CC2(CC2)C1 [Example 71, 3-methyl-4-[5-(7H-pyrrolo[2,3-d]pyrimidin-4-yl)-5,8-diazaspiro[2.6]nonane-8-carbonyl]benzenesulfonamide] | 100 to 1000 nM | 100 to 1000 nM | > 1000 nM | 100 to 1000 nM
CNS(=O)(=O)c1ccc(C(=O)N2CCN(c3ncnc4[nH]ccc34)CC3(CC3)C2)cc1 [Example 72, N-methyl-4-[5-(7H-pyrrolo[2,3-d]pyrimidin-4-yl)-5,8-diazaspiro[2.6]nonane-8-carbonyl]benzenesulfonamide] | 100 to 1000 nM | < 100 nM | > 1000 nM | 100 to 1000 nM
NS(=O)(=O)c1cccc(C(=O)N2CCN(c3ncnc4[nH]ccc34)CC3(CC3)C2)c1 [Example 73, 3-[5-(7H-pyrrolo[2,3-d]pyrimidin-4-yl)-5,8-diazaspiro[2.6]nonane-8-carbonyl]benzenesulfonamide] | 100 to 1000 nM | 100 to 1000 nM | > 1000 nM | 100 to 1000 nM
COCCNS(=O)(=O)c1ccc(C(=O)N2CCN(c3ncnc4[nH]ccc34)CC3(CC3)C2)cc1 [Example 74, N-(2-methoxyethyl)-4-[5-(7H-pyrrolo[2,3-d]pyrimidin-4-yl)-5,8-diazaspiro[2.6]nonane-8-carbonyl]benzenesulfonamide] | 100 to 1000 nM | 100 to 1000 nM | > 1000 nM | 100 to 1000 nM
NS(=O)(=O)c1cc(C(=O)N2CCN(c3ncnc4[nH]ccc34)CC3(CC3)C2)cs1 [Example 75] | < 100 nM | < 100 nM | 100 to 1000 nM | 100 to 1000 nM
NS(=O)(=O)c1ccc(CC(=O)N2CCN(c3ncnc4[nH]ccc34)CC3(CC3)C2)s1 [Example 76, 5-[2-oxo-2-[5-(7H-pyrrolo[2,3-d]pyrimidin-4-yl)-5,8-diazaspiro[2.6]nonan-8-yl]ethyl]thiophene-2-sulfonamide] | < 100 nM | < 100 nM | 100 to 1000 nM | < 100 nM
O=C(Cc1ccc(-c2nn[nH]n2)cc1)N1CCN(c2ncnc3[nH]ccc23)CC2(CC2)C1 [Example 77, 1-[5-(7H-pyrrolo[2,3-d]pyrimidin-4-yl)-5,8-diazaspiro[2.6]nonan-8-yl]-2-[4-(2H-tetrazol-5-yl)phenyl]ethanone] | < 100 nM | < 100 nM | 100 to 1000 nM | 100 to 1000 nM
CCCc1csc(C(=O)N2CCN(c3ncnc4[nH]ccc34)CC3(CC3)C2)c1 [Example 78, (4-propyl-2-thienyl)-[5-(7H-pyrrolo[2,3-d]pyrimidin-4-yl)-5,8-diazaspiro[2.6]nonan-8-yl]methanone] | 100 to 1000 nM | 100 to 1000 nM | > 1000 nM | 100 to 1000 nM
Cc1cc(CC(=O)N2CCN(c3ncnc4[nH]ccc34)CC3(CC3)C2)no1 [Example 87, 2-(5-methylisoxazol-3-yl)-1-[5-(7H-pyrrolo[2,3-d]pyrimidin-4-yl)-5,8-diazaspiro[2.6]nonan-8-yl]ethanone] | < 100 nM | < 100 nM | 100 to 1000 nM | 100 to 1000 nM
O=C(Nc1ccccc1)N1CCCN(c2ncnc3[nH]ccc23)CC12CC2 [Example 90, N-phenyl-5-(7H-pyrrolo[2,3-d]pyrimidin-4-yl)-5,9-diazaspiro[2.6]nonane-9-carboxamide] | < 100 nM | 100 to 1000 nM | > 1000 nM | 100 to 1000 nM
